Article PMC7824300, “Expanding the Structural Diversity of DNA Methyltransferase Inhibitors” (Pharmaceuticals, 2020)
Like-named read-outs stand apart in the source and are kept apart here.

Key:
DNMT1 = target: T1, DNMT1 (Homo sapiens, UniProt P26358); test: HotSpot radioisotope methyltransferase assay, DNMT1 (Poly dI-dC substrate); type: biochemical; details: for inhibition at 100 µM / relative enzymatic activity of DNMT1 / inhibition of DNMT1: 100 μM compound; for relative enzymatic activity of DNMT1: mean of two measurements ± SD; for inhibition of DNMT1: 100 µM
T1 construct: purchased Reaction Biology Corporation (contract screening service)
T1 sequence (P26358 whole entry): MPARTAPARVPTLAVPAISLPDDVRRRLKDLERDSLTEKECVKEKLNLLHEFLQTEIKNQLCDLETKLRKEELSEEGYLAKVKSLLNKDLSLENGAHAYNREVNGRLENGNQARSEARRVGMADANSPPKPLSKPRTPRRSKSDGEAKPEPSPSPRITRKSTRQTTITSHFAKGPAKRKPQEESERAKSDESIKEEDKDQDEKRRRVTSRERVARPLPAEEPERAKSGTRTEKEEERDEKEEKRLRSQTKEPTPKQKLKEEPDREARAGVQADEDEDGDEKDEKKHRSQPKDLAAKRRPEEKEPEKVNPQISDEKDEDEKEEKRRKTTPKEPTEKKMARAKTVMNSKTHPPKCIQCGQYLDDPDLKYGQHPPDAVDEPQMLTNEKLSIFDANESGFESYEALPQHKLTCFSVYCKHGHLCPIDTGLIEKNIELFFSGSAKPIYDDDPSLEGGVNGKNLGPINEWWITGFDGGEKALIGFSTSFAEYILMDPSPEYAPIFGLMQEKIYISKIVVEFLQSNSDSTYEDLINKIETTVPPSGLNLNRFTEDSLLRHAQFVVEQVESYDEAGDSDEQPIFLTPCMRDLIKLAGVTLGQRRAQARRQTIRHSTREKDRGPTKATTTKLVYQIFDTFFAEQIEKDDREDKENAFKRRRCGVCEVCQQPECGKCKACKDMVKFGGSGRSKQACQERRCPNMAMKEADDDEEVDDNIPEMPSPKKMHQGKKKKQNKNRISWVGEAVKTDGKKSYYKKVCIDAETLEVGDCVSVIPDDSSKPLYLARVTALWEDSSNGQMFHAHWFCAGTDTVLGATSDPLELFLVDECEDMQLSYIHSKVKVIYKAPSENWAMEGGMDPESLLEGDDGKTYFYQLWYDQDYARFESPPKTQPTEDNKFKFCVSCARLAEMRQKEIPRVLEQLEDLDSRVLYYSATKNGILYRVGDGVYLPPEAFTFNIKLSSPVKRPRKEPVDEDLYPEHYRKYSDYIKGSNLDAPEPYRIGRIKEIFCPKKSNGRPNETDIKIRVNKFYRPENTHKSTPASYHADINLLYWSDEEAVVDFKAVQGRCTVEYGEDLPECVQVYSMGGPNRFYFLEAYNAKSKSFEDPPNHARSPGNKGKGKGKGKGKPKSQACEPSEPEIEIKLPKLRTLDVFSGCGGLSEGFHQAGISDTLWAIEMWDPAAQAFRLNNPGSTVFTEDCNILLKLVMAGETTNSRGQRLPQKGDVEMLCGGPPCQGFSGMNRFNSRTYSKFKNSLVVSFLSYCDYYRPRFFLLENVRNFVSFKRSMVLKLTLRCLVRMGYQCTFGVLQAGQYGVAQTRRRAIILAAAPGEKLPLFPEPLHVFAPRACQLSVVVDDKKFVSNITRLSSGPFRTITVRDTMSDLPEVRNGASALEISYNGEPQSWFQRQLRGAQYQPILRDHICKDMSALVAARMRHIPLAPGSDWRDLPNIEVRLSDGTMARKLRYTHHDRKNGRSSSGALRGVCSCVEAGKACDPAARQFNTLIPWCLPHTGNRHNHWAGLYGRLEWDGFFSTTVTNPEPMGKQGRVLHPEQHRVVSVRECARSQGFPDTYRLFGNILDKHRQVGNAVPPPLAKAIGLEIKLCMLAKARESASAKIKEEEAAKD
Protocol: First, the 10 compounds were tested at a single concentration (100 μM) in duplicate in a biochemical DNMT assay. […] Predicted binding modes for the five compounds were studied using molecular docking, implementing a novel re-scoring algorithm recently developed.
The inhibition of the enzymatic activity of DNMT1, DNMT3B, and DNMT3B/3L was tested using the HotSpot^SM platform for methyltransferase assays available at Reaction Biology Corporation. HotSpot^SM is a low volume radioisotope-based assay that uses tritium-labeled AdoMet (^3H-SAM) as a methyl donor. The test compounds diluted in dimethyl sulfoxide were added using acoustic technology (Echo550, Labcyte) into enzyme/substrate mixture in the nano-liter range. The corresponding reactions were commenced by the addition of ^3H-SAM and incubated at 30°C. Total final methylations on the substrate (Poly dI-dC in DNMT1 assay, and Lambda DNA in DNMT3B; DNMT3B/3L assay) were identified by a filter binding method implemented in Reaction Biology. Data analysis was conducted with Graphed Prism software (La Jolla, CA, USA) for curve fits. Reactions were carried out at 1 μM of SAM. […] The 10 compounds were tested first with DNMT1 and DNMT3B at one 100 μM concentration in duplicate. […] Theaflavin was also tested with DNMT3B and DNMT3B/L in 10-dose IC50 with threefold serial dilution starting at 100 μM.

DNMT3B = target: T2, DNMT3B (Homo sapiens, UniProt Q9UBC3); test: HotSpot radioisotope methyltransferase assay, DNMT3B (Lambda DNA substrate); type: biochemical; details: for relative enzymatic activity of DNMT3B: mean of two measurements ± SD, 1 μM SAM
T2 construct: purchased Reaction Biology Corporation (contract screening service)
Protocol: First, the 10 compounds were tested at a single concentration (100 μM) in duplicate in a biochemical DNMT assay. SAH was used as a reference. […] Predicted binding modes for the five compounds were studied using molecular docking, implementing a novel re-scoring algorithm recently developed.
(§1) The inhibition of the enzymatic activity of DNMT1, DNMT3B, and DNMT3B/3L was tested using the HotSpot^SM platform for methyltransferase assays available at Reaction Biology Corporation. HotSpot^SM is a low volume radioisotope-based assay that uses tritium-labeled AdoMet (^3H-SAM) as a methyl donor. The test compounds diluted in dimethyl sulfoxide were added using acoustic technology (Echo550, Labcyte) into enzyme/substrate mixture in the nano-liter range. The corresponding reactions were commenced by the addition of ^3H-SAM and incubated at 30°C. Total final methylations on the substrate (Poly dI-dC in DNMT1 assay, and Lambda DNA in DNMT3B; DNMT3B/3L assay) were identified by a filter binding method implemented in Reaction Biology. Data analysis was conducted with Graphed Prism software (La Jolla, CA, USA) for curve fits. Reactions were carried out at 1 μM of SAM. In all assays, SAH was used as a standard positive control. The 10 compounds were tested first with DNMT1 and DNMT3B at one 100 μM concentration in duplicate. […] Theaflavin was also tested with DNMT3B and DNMT3B/L in 10-dose IC50 with threefold serial dilution starting at 100 μM. The authors have previously contracted the screening services of Reaction Biology Corporation to identify a novel inhibitor of DNMT1 [24].

[1] = target: viral NS5 RNA methyltransferase; design: method as in PMID 20108931; details: cited from earlier work
[2] = target: viral NS5 RNA methyltransferase; design: method as in PMID 20108931; details: cited from earlier work; remark: listed apart in the source
A549 cell line = details: read-out: IC50 for A549 cell line; human lung cancer cell line harboring wild-type p53; cited from earlier work
U373MG cell line = details: read-out: IC50 for U373MG cell line; human glioblastoma cell line harboring inactive mutant p53; cited from earlier work
Hut78 cell line = details: read-out: IC50 for Hut78 cell line; cutaneous T cell lymphoma; cited from earlier work
DNMT3B/3L = target: T3, DNMT3B/3L (Homo sapiens, UniProt Q9UBC3); test: HotSpot radioisotope methyltransferase assay, DNMT3B/3L (Lambda DNA substrate); type: biochemical; details: 10-dose, threefold serial dilution starting at 100 μM
T3 construct: purchased Reaction Biology Corporation (contract screening service)
Protocol: as §1

[3] = Table 3, read-out: % Inhibition (DNMT1)
[4] = rounded values, read-out: inhibition of DNMT1
[5] = 10-dose, threefold serial dilution starting at 100 μM, 1 μM SAM, mean of two measurements, read-out: DNMT1 IC50
[6] = 100 μM compound, rounded values

inhibition at 100 µM (DNMT1; [3]) [%]	relative enzymatic activity of DNMT1 (DNMT1; 1 μM SAM)	inhibition at 100 µM (DNMT1; [4]) [%]	IC50 (DNMT1; [5]) [µM]	relative enzymatic activity of DNMT3B (DNMT3B; 100 μM compound)	Structure (SMILES)	other results
60	40.04 (±0.78) %	60	55.9	95.97 (±4.76) %	COc1ccc(Cl)cc1C(=O)NCCc1ccc(S(=O)(=O)NC(=O)NC2CCCCC2)cc1 [Glyburide, reference compound]	
-5.71	105.71 (±1.27) %			97.85 (±5.66) %	O=C(O)c1ccc(NS(=O)(=O)c2ccc(N3CCCC3=O)cc2)cc1 [CSC027083851]	
62.7		63			Cc1[nH]c2ccccc2c1CCNCc1ccc(/C=C/C(=O)NO)cc1 [Panobinostat, reference compound]	
6.74	93.26 (±7.97) %			93.54 (±0.54) %	COc1ccc(S(=O)(=O)Nc2c(C)n(C)n(-c3ccccc3)c2=O)cc1C(=O)O [compound 6631802]	
30	70.63 (±0.19) %	29		96.39 (±0.28) %	Cc1cc(NC(=O)CN2CCN(c3cc(C(N)=O)c4ccccc4n3)CC2)no1 [CSC027480404]	inhibition of DNMT1 (DNMT1; rounded values): 30%
26.6	73.45 (±3.06) %	27		90.59 (±2.49) %	Cc1ccnc2nc(C(=O)Nc3nc(-c4ccc5c(c4)OCO5)cs3)nn12 [CSC026286840]	inhibition of DNMT1 (DNMT1; rounded values): 30%
-7.25	107.25 (±0.59) %			95.28 (±0.47) %	CC(C)(CC(=O)Nc1cccc(Cn2cccn2)c1)C(=O)O [CSC027796832]	
64.6	35.42 (±1.78) %	65	85.1	97.42 (±2.49) %	Cc1cc(NCc2nnc(Cc3ccccc3)o2)ccc1C(N)=O [CSC027694519]	
					NNc1nncc2ccccc12 [Hydralazine]	IC50 (A549 cell line): 2 µM; IC50 (U373MG cell line): 20 µM; IC50 (Hut78 cell line): 30 µM
65.4	34.62 (±0.06) %	65	85.3	66.75 (±1.11) %	O=c1c(O)cc([C@H]2Oc3cc(O)cc(O)c3C[C@H]2O)cc2c([C@H]3Oc4cc(O)cc(O)c4C[C@H]3O)cc(O)c(O)c12 [Theaflavin]	inhibition at 100 µM (DNMT3B; [6]): 33%; IC50 (DNMT3B; 10-dose, threefold serial dilution starting at 100 μM): > 100 µM; IC50 (DNMT3B/3L): > 100 µM

Structure (SMILES)	inhibition at 100 µM (DNMT1; [3]) [%]	relative enzymatic activity of DNMT1 (DNMT1; 1 μM SAM)	inhibition at 100 µM (DNMT1; [4]) [%]	IC50 (DNMT1; [5]) [µM]	relative enzymatic activity of DNMT3B (DNMT3B; 100 μM compound)	other results
Cc1ccc(Cl)cc1NS(=O)(=O)c1ccc(NS(=O)(=O)c2ccc3ccccc3c2)cc1 [compound 7936171]	62.3	37.74 (±2.15) %	62	78.5	78.20 (±0.30) %	IC50 (DNMT1; -log value of the IC50, read-out: pIC50 (DNMT1) (converted)): 77.6 µM; inhibition at 100 µM (DNMT3B; [6]): 22%; inhibition of DNMT3B (DNMT3B; 100 μM compound, rounded values, listed as naphthalene sulfonamide, 100 µM): higher than 20%; IC50 [1]: 64.2 µM; EC50 [2]: 12 µM
